Legend:
Format in all cases: in vivo, Golden Syrian hamster
[1] = Example 2 preventive effect model: plasma triglyceride levels
Method: (§1) Male LVG golden Syrian hamsters were used for the studies below. The base feed consisted of the food AO4C sold by the company SAFE diet. In the hypercholesterol diets, cholesterol was added (provided by MP Biomedicals)
(§2) Different cyclodextrins were tested • firstly, hydroxypropyl-β-cyclodextrin (HPBCD) sold by the Applicant under the name “KLEPTOSE® HPB” (oral grade); • secondly, methyl-β-cyclodextrin (MCD) “KLEPTOSE® CRYSMEB”, owned by the Applicant.
(§3) In this study, 40 Golden Syrian origin LVG hamsters were divided into 4 groups of 10 and subjected for 6 weeks to the following diets: • “Control” group: normal diet • “Control HC” group: hypercholesterol diet (containing 2.5% by weight of cholesterol) • “HC+Crysmeb” group: hypercholesterol diet (containing 2.5% by weight of cholesterol)+3% by weight of Crysmeb (MCD) • “HC+HPBCD” group: hypercholesterol diet (containing 2.5% by weight of cholesterol)+3% by weight of HPBCD.

[2] = test system: Golden Syrian origin LVG hamsters; experiment: Example 2 preventive effect model: biochemical data measured in the liver (lipid storage); details: end of the 42 days of treatment, HC diet + 3% cyclodextrin
Method: as §1, §2, §3
Table 3 provides the biochemical data measured in the liver of the animals at the end of the 42 days of treatment.

[3] = test system: genes involved in de novo lipodogenesis, de novo cholesterol synthesis and cholesterol removal; experiment: Example 2: messenger RNA expressed in the liver; details: liver mRNA at end of study
Method: as §1, §2, §3
The levels of expression of different genes involved in de novo lipodogenesis (FIG. 3) and in de novo cholesterol synthesis (FIG. 5) and cholesterol removal (FIG. 6) were measured in the liver at the end of the study, in the 4 groups of animals.

[4] = Example 2 preventive effect model: body weight and organ weights; details: hypercholesterol diet (2.5% cholesterol) + 3% by weight cyclodextrin in feed, end of 42 days, N=10
Method: as §1, §2, §3
At the end of 42 days of study, the animals were sacrificed and the weight of the various organs was measured.

CC(O)COC[C@H]1O[C@@H]2O[C@H]3[C@H](O)[C@@H](O)[C@@H](O[C@H]4[C@H](O)[C@@H](O)[C@@H](O[C@H]5[C@H](O)[C@@H](O)[C@@H](O[C@H]6[C@H](O)[C@@H](O)[C@@H](O[C@H]7[C@H](O)[C@@H](O)[C@@H](O[C@H]8[C@H](O)[C@@H](O)[C@@H](O[C@H]1[C@H](O)[C@H]2O)O[C@@H]8COCC(C)O)O[C@@H]7COCC(C)O)O[C@@H]6COCC(C)O)O[C@@H]5COCC(C)O)O[C@@H]4COCC(C)O)O[C@@H]3COCC(C)O (stereo partly drawn) [HPBCD, hydroxypropyl-β-cyclodextrin]
plasma triglyceride level TG D0 (Average) ([1]; day 0 (beginning of study), HC diet + 3% cyclodextrin): 3.03
plasma triglyceride level TG D14 (Average) ([1]; day 14, HC diet + 3% cyclodextrin): 1.28
plasma triglyceride level TG D28 (Average) ([1]; day 28, HC diet + 3% cyclodextrin): 1.23
plasma triglyceride level TG D43 (Average) ([1]; day 43 (end of study), HC diet + 3% cyclodextrin): 1.58
% lipids (g of lipid in liver/animal) (Average) [2]: 1.04 g of lipid in liver/animal
% lipids (g/100 g of liver) D0 (Average) [2]: 23.02 g/100 g of liver
CHOL (mg of chol in liver/animal) (Average) [2]: 154.19 mg of chol in liver/animal
CHOL (mg/g liver) (Average) [2]: 32.98 mg/g liver
TG (mg of TG in liver/animal) (Average) [2]: 92.12 mg of TG in liver/animal
TG (mg/g liver) (Average) [2]: 22.73 mg/g liver
expression of genes involved in de novo lipogenesis (FAS, ACC, SCD1, SREBP1) ([3]; FIG. 3): inhibition of the expression of the SCD1 and ACC genes
expression of genes involved in de novo cholesterol synthesis (SREB2, CYP51a1, HMGCR) ([3]; FIG. 5): little effect
weight of the adipose tissue of epididymis (Average) [4]: 1.4
weight of the liver (Average) [4]: 4.5
